Measurements: US10011631B2, “Stapled helical peptides and methods of synthesis” (The University of Hong Kong, priority 2015, dated 2018)

Molecular target: MAGUK GK domain
Assay: ITC binding to the MAGUK GK domain
Conditions: from ITC studies

- binding affinity with the GK domain: no binding affinity
Substance: Ala-Arg-Arg-S5-Glu-Tyr-Leu-S5-Ala-Ile-Gln [compound 1]
